# Source: US20250017935A1, “7,8-DIHYDRO-5H-1,6-NAPHTHYRIDINE DERIVATIVES AS POSITIVE ALLOSTERIC MODULATORS OF THE MUSCARINIC ACETYLCHOLINE RECEPTOR M4 FOR TREATING NEUROLOGICAL AND PSYCHIATRIC DISORDERS” (Vanderbilt University, priority 2021, published 2025)
# Target: T1, Human M4 (Homo sapiens, UniProt P08173)
# T1 construct: expressed in transfected cells; host or cells: CHO-K1 (ATCC), stably expressing hM4 and Gqi5
# T1 sequence (P08173 1-479): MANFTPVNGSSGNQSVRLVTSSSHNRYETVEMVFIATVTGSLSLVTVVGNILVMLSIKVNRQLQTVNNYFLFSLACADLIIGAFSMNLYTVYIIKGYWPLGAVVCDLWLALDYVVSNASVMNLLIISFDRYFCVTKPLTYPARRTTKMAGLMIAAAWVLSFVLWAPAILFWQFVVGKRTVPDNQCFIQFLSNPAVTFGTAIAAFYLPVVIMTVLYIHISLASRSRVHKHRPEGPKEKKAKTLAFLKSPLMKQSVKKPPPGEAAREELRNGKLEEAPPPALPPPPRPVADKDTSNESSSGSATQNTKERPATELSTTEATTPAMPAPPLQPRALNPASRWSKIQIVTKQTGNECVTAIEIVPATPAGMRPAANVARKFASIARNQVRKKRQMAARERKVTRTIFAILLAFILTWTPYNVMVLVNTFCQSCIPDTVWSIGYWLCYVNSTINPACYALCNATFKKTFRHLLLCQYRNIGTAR
# Assay: mAChR M4 cell-based functional assay (calcium flux, potentiation of EC20 acetylcholine response) in hM4-Gqi5 CHO-K1 cells
# Conditions: for Emax at 30 µM: % ACh maximum at 30 μM, human M4 CHO-K1 cells; for EC50: CHO-K1 cells transfected with human M4 and Gqi5, positive allosteric modulator activity, EC20 acetylcholine
# Experimental: Human M4 cDNA, along with the chimeric G protein Gqi5, were transfected into Chinese hamster ovary (CHO-K1) cells purchased from the American Type Culture Collection using commercially available Lipofectamine 2000 transfection reagent (Dalby, B. et al., Methods (2004) 33(2), 95-103). hM4-Gqi5 cells were grown in Ham's F-12 medium containing 10% heat-inactivated fetal bovine serum (FBS), 20 mM HEPES, 50 μg/mL G418 sulfate (CAS #108321-42-2), and 500 μg/mL Hygromycin B. rM4-Gqi5 cells were grown in DMEM containing 10% heat-inactivated FBS, 20 mM HEPES, 400 μg/mL G418 sulfate, and 500 μg/mL Hygromycin B.
# For high throughput measurement of agonist-evoked increases in intracellular calcium, CHO-K1 cells stably expressing muscarinic receptors were plated in growth medium lacking G418 sulfate and hygromycin at 15,000 cells/20 μL/well in Greiner 384-well black-walled, tissue culture (TC)-treated, clear-bottom plates (VWR). Cells were incubated overnight at 37° C. and 5% CO2. The next day, cells were washed using an ELX 405 (BioTek) with assay buffer; the final volume was then aspirated to 20 μL. Next, 20 μL of a 2.3 μM stock of Fluo-4/acetoxymethyl ester (Invitrogen, Carlsbad, CA), prepared as a 2.3 mM stock in DMSO and mixed in a 1:1 ratio with 10% (w/v) Pluronic F-127 and diluted in assay buffer, was added to the wells and the cell plates were incubated for 50 minutes at 37° C. and 5% CO2. Dye was removed by washing with the ELX 405 and the final volume was aspirated to 20 μL. Compound master plates were formatted in an 11 point concentration-response curve (CRC) format (1:3 dilutions) in 100% DMSO with a starting concentration of 10 mM using a BRAVO liquid handler (Agilent). Test compound CRCs were then transferred to daughter plates (240 nL) using the Echo acoustic plate reformatter (Labcyte, Sunnyvale, CA) and then diluted into assay buffer (40 μL) to a 2× stock using a Thermo Fisher Combi (Thermo Fisher Scientific, Waltham, MA).
# Calcium flux was measured using the Functional Drug Screening System (FDSS) 6000 or 7000 (Hamamatsu Corporation, Tokyo, Japan) as an increase in the fluorescent static ratio. Compounds were applied to cells (20 μL, 2×) using the automated system of the FDSS at 2-4 seconds into the protocol and the data were collected at 1 Hz. […] Agonist activity was analyzed as a concentration-dependent increase in calcium mobilization upon compound addition. Positive allosteric modulator activity was analyzed as a concentration-dependent increase in the EC20 acetylcholine response. With the acetylcholine EC20 set as baseline, the test compound EC50 is determined as the concentration that produces an increase above baseline of 50% of the maximum increase in acetylcholine response elicted by the test compound. Antagonist activity was analyzed as a concentration-dependent decrease in the EC80 acetylcholine response. Concentration-response curves were generated using a four-parameter logistical equation in XLFit curve fitting software (IDBS, Bridgewater, NJ) for Excel (Microsoft, Redmond, WA) or Prism (GraphPad Software, Inc., San Diego, CA).
# Compounds were synthesized as described above. Activity (EC50 and Emax) was determined in the mAChR M4 cell-based functional assay as described above and the data are shown in Table 5. The compound numbers correspond to the compound numbers used in Examples 1-13 and Tables 1, 2, and 3.
Emax at 30 µM,EC50,Compound
85%,610 nM,"Cc1sc2ncnc(N3CCc4ncc(C(F)(F)F)cc4C3)c2c1C [Compound 1, 5,6-dimethyl-4-[3-(trifluoromethyl)-7,8-dihydro-5H-1,6-naphthyridin-6-yl]thieno[2,3-d]pyrimidine]"
106%,30 nM,"Cc1cc2c(N3CCc4ncc(N5CCCn6nccc65)cc4C3)ncnc2s1 [Compound 2, 4-[3-(6,7-dihydro-5H-pyrazolo[1,5-a]pyrimidin-4-yl)-7,8-dihydro-5H-1,6-naphthyridin-6-yl]-6-methyl-thieno[2,3-d]pyrimidine]"
80%,630 nM,"Cc1cc2c(N3CCc4ncc(Oc5ccccc5F)cc4C3)ncnc2s1 [Compound 3, 4-[3-(2-fluorophenoxy)-7,8-dihydro-5H-1,6-naphthyridin-6-yl]-6-methyl-thieno[2,3-d]pyrimidine]"
43%,770 nM,"Cc1csc2c(N3CCc4ncc(-c5cnn(C6CC6)c5)cc4C3)ncnc12 [Compound 4, 4-[3-(1-cyclopropylpyrazol-4-yl)-7,8-dihydro-5H-1,6-naphthyridin-6-yl]-7-methyl-thieno[3,2-d]pyrimidine]"
35%,310 nM,"Cc1ncc(-c2cnc3c(c2)CN(c2ncnc4c(C)csc24)CC3)s1 [Compound 5, 7-methyl-4-[3-(2-methylthiazol-5-yl)-7,8-dihydro-5H-1,6-naphthyridin-6-yl]thieno[3,2-d]pyrimidine]"
45%,100 nM,"Cc1ncc(-c2cnc3c(c2)CN(c2ncnc4sccc24)CC3)s1 [Compound 6, 4-[3-(2-methylthiazol-5-yl)-7,8-dihydro-5H-1,6-naphthyridin-6-yl]thieno[2,3-d]pyrimidine]"
88%,3280 nM,"Cc1nc(N2CCc3ncc(C(F)(F)F)cc3C2)c2c(C)c(C)sc2n1 [Compound 7, 2,5,6-trimethyl-4-[3-(trifluoromethyl)-7,8-dihydro-5H-1,6-naphthyridin-6-yl]thieno[2,3-d]pyrimidine]"
78%,30 nM,"Cc1csc2ncnc(N3CCc4ncc(C(F)(F)F)cc4C3)c12 [Compound 8, 5-methyl-4-[3-(trifluoromethyl)-7,8-dihydro-5H-1,6-naphthyridin-6-yl]thieno[2,3-d]pyrimidine]"
76%,30 nM,"Cc1cc2c(N3CCc4ncc(C(F)(F)F)cc4C3)ncnc2s1 [Compound 9, 6-methyl-4-[3-(trifluoromethyl)-7,8-dihydro-5H-1,6-naphthyridin-6-yl]thieno[2,3-d]pyrimidine]"
79%,120 nM,"FC(F)(F)c1cnc2c(c1)CN(c1ncnc3ccsc13)CC2 [Compound 10, 4-[3-(trifluoromethyl)-7,8-dihydro-5H-1,6-naphthyridin-6-yl]thieno[3,2-d]pyrimidine]"
63%,500 nM,"Cc1csc2c(N3CCc4ncc(C(F)(F)F)cc4C3)ncnc12 [Compound 11, 7-methyl-4-[3-(trifluoromethyl)-7,8-dihydro-5H-1,6-naphthyridin-6-yl]thieno[3,2-d]pyrimidine]"
74%,230 nM,"Cc1cc2c(N3CCc4ncc(-c5cn(C)nc5C)cc4C3)ncnc2s1 [Compound 12, 4-[3-(1,3-dimethylpyrazol-4-yl)-7,8-dihydro-5H-1,6-naphthyridin-6-yl]-6-methyl-thieno[2,3-d]pyrimidine]"
121%,70 nM,"Cc1cc2c(N3CCc4ncc(N5CCOc6ncccc65)cc4C3)ncnc2s1 [Compound 13, 1-[6-(6-methylthieno[2,3-d]pyrimidin-4-yl)-7,8-dihydro-5H-1,6-naphthyridin-3-yl]-2,3-dihydropyrido[2,3-b][1,4]oxazine]"
97%,190 nM,"Cc1ccc(-c2cnc3c(c2)CN(c2ncnc4sc(C)cc24)CC3)cn1 [Compound 14, 6-methyl-4-[3-(6-methyl-3-pyridyl)-7,8-dihydro-5H-1,6-naphthyridin-6-yl]thieno[2,3-d]pyrimidine]"
45%,550 nM,"Cc1ccc(-c2cnc3c(c2)CN(c2ncnc4c(C)csc24)CC3)cn1 [Compound 15, 7-methyl-4-[3-(6-methyl-3-pyridyl)-7,8-dihydro-5H-1,6-naphthyridin-6-yl]thieno[3,2-d]pyrimidine]"
91%,60 nM,"Cc1csc2ncnc(N3CCc4ncc(N5CCOc6ncccc65)cc4C3)c12 [Compound 16, 1-[6-(5-methylthieno[2,3-d]pyrimidin-4-yl)-7,8-dihydro-5H-1,6-naphthyridin-3-yl]-2,3-dihydropyrido[2,3-b][1,4]oxazine]"
79%,180 nM,"Cc1ccc(-c2cnc3c(c2)CN(c2ncnc4scc(C)c24)CC3)cn1 [Compound 17, 5-methyl-4-[3-(6-methyl-3-pyridyl)-7,8-dihydro-5H-1,6-naphthyridin-6-yl]thieno[2,3-d]pyrimidine]"
72%,470 nM,"Cc1ncc(-c2cnc3c(c2)CN(c2ncnc4scc(C)c24)CC3)s1 [Compound 18, 5-methyl-4-[3-(2-methylthiazol-5-yl)-7,8-dihydro-5H-1,6-naphthyridin-6-yl]thieno[2,3-d]pyrimidine]"
58%,1840 nM,"Cc1ccc(Oc2cnc3c(c2)CN(c2ncnc4scc(C)c24)CC3)c(F)c1 [Compound 19, 4-[3-(2-fluoro-4-methyl-phenoxy)-7,8-dihydro-5H-1,6-naphthyridin-6-yl]-5-methyl-thieno[2,3-d]pyrimidine]"
91%,470 nM,"Cc1cc2c(N3CCc4ncc(-c5cnn(C6CC6)c5)cc4C3)ncnc2s1 [Compound 20, 4-[3-(1-cyclopropylpyrazol-4-yl)-7,8-dihydro-5H-1,6-naphthyridin-6-yl]-6-methyl-thieno[2,3-d]pyrimidine]"
88%,250 nM,"Cc1cc2c(N3CCc4ncc(-c5cnc(C)s5)cc4C3)ncnc2s1 [Compound 21, 6-methyl-4-[3-(2-methylthiazol-5-yl)-7,8-dihydro-5H-1,6-naphthyridin-6-yl]thieno[2,3-d]pyrimidine]"
85%,280 nM,"Cc1csc2c(N3CCc4ncc(N5CCCn6nccc65)cc4C3)ncnc12 [Compound 22, 4-[3-(6,7-dihydro-5H-pyrazolo[1,5-a]pyrimidin-4-yl)-7,8-dihydro-5H-1,6-naphthyridin-6-yl]-7-methyl-thieno[3,2-d]pyrimidine]"
59%,560 nM,"Cc1nn(C)cc1-c1cnc2c(c1)CN(c1ncnc3c(C)csc13)CC2 [Compound 23, 4-[3-(1,3-dimethylpyrazol-4-yl)-7,8-dihydro-5H-1,6-naphthyridin-6-yl]-7-methyl-thieno[3,2-d]pyrimidine]"
70%,220 nM,"Cc1csc2c(N3CCc4ncc(N5CCOc6ncccc65)cc4C3)ncnc12 [Compound 24, 1-[6-(7-methylthieno[3,2-d]pyrimidin-4-yl)-7,8-dihydro-5H-1,6-naphthyridin-3-yl]-2,3-dihydropyrido[2,3-b][1,4]oxazine]"
